Laboratory results published in ChEMBL document CHEMBL1201862, “PubChem BioAssay data set” (2004).
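Five concentrations, 48 hours, 96-well plates. GI50 = concentration required for 50% inhibition of growth.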 The source made the active and inactive calls. No stated cut-off is given here; in the data, active = GI50 up to about 1.1 µM and inactive = higher.

Experiments:
Assay in all cases: NCI tumour cell line growth inhibition, 48 h
786-0 = tested on: 786-0
NCI-H226 = tested on: NCI-H226
U-251 = tested on: U-251
ACHN = tested on: ACHN
DLD-1 = tested on: DLD-1
UO-31 = tested on: UO-31
EKVX = tested on: EKVX
SNB-78 = tested on: SNB-78
HOP-92 = tested on: HOP-92
M19-MEL = tested on: M19-MEL
LXFL 529 = tested on: LXFL 529
SW-620 = tested on: SW-620
MOLT-4 = tested on: MOLT-4
DMS-114 = tested on: DMS-114
SNB-75 = tested on: SNB-75
HL-60 = tested on: HL-60
RPMI-8226 = tested on: RPMI-8226
OVCAR-5 = tested on: OVCAR-5
SN12C = tested on: SN12C
IGROV-1 = tested on: IGROV-1
OVCAR-3 = tested on: OVCAR-3
NCI-H460 = tested on: NCI-H460
M14 = tested on: M14
CCRF-CEM = tested on: CCRF-CEM
UACC-62 = tested on: UACC-62
DMS-273 = tested on: DMS-273
Malme-3M = tested on: Malme-3M
SF-268 = tested on: SF-268
SNB-19 = tested on: SNB-19
UACC-257 = tested on: UACC-257
HCT-15 = tested on: HCT-15
HCT-116 = tested on: HCT-116
SK-OV-3 = tested on: SK-OV-3
LOX IMVI = tested on: LOX IMVI
SK-MEL-28 = tested on: SK-MEL-28
RXF 393 = tested on: RXF 393
NCI-H522 = tested on: NCI-H522
A549 = tested on: A549
SF-295 = tested on: SF-295
HOP-62 = tested on: HOP-62
XF498 = tested on: XF498
KM-20L2 = tested on: KM-20L2
OVCAR-8 = tested on: OVCAR-8
SK-MEL-5 = tested on: SK-MEL-5
TK-10 = tested on: TK-10
COLO 205 = tested on: COLO 205
HT-29 = tested on: HT-29
A498 = tested on: A498
SR = tested on: SR
SF-539 = tested on: SF-539
HOP-18 = tested on: HOP-18
SK-MEL-2 = tested on: SK-MEL-2
HCC 2998 = tested on: HCC 2998
OVCAR-4 = tested on: OVCAR-4
NCI-H23 = tested on: NCI-H23
K562 = tested on: K562
KM12 = tested on: KM12
CAKI-1 = tested on: CAKI-1

Measured: GI50

O=c1c([Se]c2coc3ccccc3c2=O)coc2ccccc12
inactive: 786-0 18.5 µM | NCI-H226 14.1 µM | U-251 7.13 µM | ACHN 18.2 µM | DLD-1 18.2 µM | UO-31 13.5 µM | EKVX 18.7 µM | SNB-78 19.9 µM | HOP-92 17.6 µM | M19-MEL 15.3 µM | LXFL 529 15.4 µM | SW-620 19 µM | MOLT-4 9.18 µM | DMS-114 17.5 µM | SNB-75 15.6 µM | HL-60 23 µM | RPMI-8226 22.8 µM | OVCAR-5 16.2 µM | SN12C 15 µM | IGROV-1 10.5 µM | OVCAR-3 18 µM | NCI-H460 3.65 µM | M14 14.9 µM | CCRF-CEM 18.1 µM | UACC-62 17.1 µM | DMS-273 11 µM | Malme-3M 17.8 µM | SF-268 19.5 µM | SNB-19 14 µM | UACC-257 17.4 µM | HCT-116 3.8 µM | SK-OV-3 16.2 µM | LOX IMVI 16 µM | SK-MEL-28 17.1 µM | RXF 393 15.9 µM | NCI-H522 18.4 µM | A549 6.3 µM | SF-295 2.76 µM | HOP-62 4.89 µM | XF498 16.8 µM | KM-20L2 12 µM | OVCAR-8 12.7 µM | SK-MEL-5 16.3 µM | TK-10 17.7 µM | COLO 205 16.2 µM | HT-29 17.1 µM | A498 19.1 µM | SR 4.72 µM | SF-539 11.9 µM | HOP-18 15.7 µM | SK-MEL-2 18.2 µM | HCC 2998 17.7 µM | OVCAR-4 16.9 µM | NCI-H23 15.6 µM | K562 34.1 µM | KM12 11.3 µM | CAKI-1 20 µM
16.9 µM: HCT-15
